# Test results: patent US8404646B2, “Methods for preventing or treating mitochondrial permeability transition” (Cornell Research Foundation, Inc., priority 2003, dated 2013)
# Non-standard residues stand in square brackets, D forms with d. Residues, ends and D or L forms follow the SMILES beside them. *: point of attachment. Dansyl = CN(C)c1cccc2c(S(=O)(=O)*)cccc12; Dmt = Cc1cc(O)cc(C)c1C[C@H](N)C(=O)O; Dap = NC[C@H](N)C(=O)O
# What was measured:
# [1] = Body weight and heart rate during the infarction/reperfusion experiment; format: in vivo, rat
# Procedure: Adult male […] rats (F344 strain, National Institute of Aging, maintained by Harian Sprague-Dawley Inc.), weighting between 285 and 425 gm, were used. Twenty-four rats (n=8/group) were randomly assigned to one of three groups: (1) Control group was given 0.4 ml of saline as an intra-peritoneal (IP) injection 30 minutes before the ligation of left anterior descending coronary artery, followed by same IP dose injection 5 minutes before reperfusion; (2) SS-31 group was treated with SS-31 (3 mg/kg dissolved in 0.4 ml of saline) as an IP injection 30 minutes before the ligation followed by same IP dose injection as maintenance 5 minutes before reperfusion; and (3) SS-20 group was treated with SS-20 (3 mg/kg dissolved in 0.4 ml of saline) as an IP injection 30 minutes before the ligation followed by same dose IP injection as maintenance just 5 minutes before reperfusion. Also, Sham-operated rats (n=3) were used to account for possible effects related to the surgical protocol. All procedures were performed in a blinded manner, with the groups assigned letters and their identities unknown to the operators. Likewise, the two independent investigators analyzing the data were blind to the treatment assignments.
# After anesthesia with ketamine (90 mg/kg IP) and xylazine (4 mg/kg IP), a tracheotomy was performed, and the rat was intubated with polyethylene tube and ventilated (Harvard Rodent Ventilator model 683) with room air and a tidal volume of 0.65 ml/100 gm of body weight at 90 breaths per minute. Body temperature was maintained at 37° C. by using a heated operating table. The internal jugular vein was surgically exposed and a polyethylene tube was inserted for Evans blue dye solution injection. Peripheral limb electrodes were inserted subcutaneously and electrocardiogram was monitored throughout the procedure.
# An ECG was recorded continuously from a standard lead II (AC AMP 700) inserted into the limbs of all rats. The ECG was printed at 25 mm/second. The cardiac arrhythmias were monitored and assessed in accordance with the Lambeth Convention. The assessment was performed in a blinded manner using the original paper recordings. A validated score was used to quantify the severity of cardiac arrhythmias. The score consisted of six types: 0, no ventricular extrasystoles (VES), ventricular tachycardia (VT) or ventricular fibrillation (VF); 1=VES; 2=one to five episodes of VT (more than four coupled VES); 3=more than five episodes of VT and/or one VF; 4=two to five episodes of VF; 5=more than five episodes of VF.
# All values are expressed as mean±standard error of mean (S.E.M.). Statistical analyses were performed using SPSS version 10. Differences among groups in body weight, heart rate, arrhythmia, area at risk as a percentage of the left ventricle, and area of infarction as a percentage of the area at risk were analyzed using ANOVA. If significant differences were detected, comparisons between the control group and the 2 treatment groups were conducted using the Mann-Whitney U-test. A two-tailed p<0.05 was regarded as significant.
# [2] = system: Caco-2 cells; assay: Confocal laser scanning microscopy of fluorescent analogs (uptake, subcellular distribution); format: cell-based, human; conditions: for subcellular distribution of fluorescence: Caco-2, CLSM
# Procedure: The uptake of [Dmt^1]DALDA into Caco-2 cells was confirmed by confocal laser scanning microscopy (CLSM) using a fluorescent analog of [Dmt^1]DALDA (Dmt-D-Arg-Phe-dnsDap-NH2; where dnsDap=β-dansyl-1-α,β-diaminopropionic acid). Cells were grown as described above and were plated on (35 mm) glass bottom dishes (MatTek Corp., Ashland, Mass.) for 2 days. The medium was then removed and cells were incubated with 1 ml of HBSS containing 0.1 μM to 1.0 μM of the fluorescent peptide analog at 37° C. for 1 h. Cells were then washed three times with ice-cold HBSS and covered with 200 μl of PBS, and microscopy was performed within 10 min at room temperature using a Nikon confocal laser scanning microscope with a C-Apochromat 63×/1.2 W corr objective. Excitation was performed at 340 nm by means of a UV laser, and emission was measured at 520 nm. For optical sectioning in z-direction, 5-10 frames with 2.0 μm were made.
# To examine the subcellular distribution of [Dmt^1]DALDA, the fluorescent analog, [Dmt^1, AtnDap^4]DALDA (Dmt-D-Arg-Phe-atnDap-NH2; where atn=β-anthraniloyl-1-α,β-diamino-propionic acid), was prepared. The analog contained β-anthraniloyl-1-α,β-diaminopropionic acid in place of the lysine reside at position 4. The cells were grown as described in Example 1 and were plated on (35 mm) glass bottom dishes (MatTek Corp., Ashland, Mass.) for 2 days. The medium was then removed and cells were incubated with 1 ml of HBSS containing 0.1 μM of [Dmt^1, AtnDap^4]DALDA at 37° C. for 15 min to 1 h.
# Cells were also incubated with tetramethylrhodamine methyl ester (TMRM, 25 nM), a dye for staining mitochondria, for 15 min at 37° C. Cells were then washed three times with ice-cold HBSS and covered with 200 μl of PBS, and microscopy was performed within 10 min at room temperature using a Nikon confocal laser scanning microscope with a C-Apochromat 63×/1.2 W corr objective.
# For [Dmt^1, AtnDap^4]DALDA, excitation was performed at 350 nm by means of a UV laser, and emission was measured at 520 nm. For TMRM, excitation was performed at 536 nm, and emission was measured at 560 nm.
# [3] = system: isolated mouse liver mitochondria; assay: Uptake into isolated mitochondria (fluorescence quenching, radioactivity in pellet); format: in vitro ADME
# Procedure: (FIG. 1A) Mitochondrial uptake of SS-19 was determined using fluorescence spectrophotometry (ex/em=320/420 nm). […] Pretreatment of mitochondria with FCCP (1.5 μM) reduced quenching by <20% (black line). […] Uptake was stopped by centrifugation (16000×g) for 5 min at 4° C., and radioactivity determined in the pellet. […] Data are shown as mean±s.e.; n=3. *, P<0.05 by Student's t-test. […] Black line, TMRM; red line, SS-19.
# To isolate mitochondria from mouse liver, mice were sacrificed by decapitation. The liver was removed and rapidly placed into chilled liver homogenization medium. The liver was finely minced using scissors and then homogenized by hand using a glass homogenizer.
# The homogenate was centrifuged for 10 min at 1000×g at 4° C. The supernatant was aspirated and transferred to polycarbonate tubes and centrifuged again for 10 min. at 3000×g, 4° C. The resulting supernatant was removed, and the fatty lipids on the side-wall of the tube were carefully wiped off.
# The pellet was resuspended in liver homogenate medium and the homogenization repeated twice. The final purified mitochondrial pellet was resuspended in medium. Protein concentration in the mitochondrial preparation was determined by the Bradford procedure.
# Approximately 1.5 mg mitochondria in 400 μl buffer was incubated with [^3H][Dmt^1]DALDA for 5-30 min at 37° C. The mitochondria were then centrifuged down and the amount of radioactivity determined in the mitochondrial fraction and buffer fraction. […] Thus [Dmt^1]DALDA is concentrated in mitochondria.
# Thus uptake of [Dmt^1, AtnDap^4]DALDA was not potential-dependent.
# To confirm that the mitochondrial targeting was not an artifact of the fluorophore, we also examined mitochondrial uptake of [^3H][Dmt^1]DALDA. Isolated mitochondria were incubated with [^3H][Dmt^1]DALDA and radioactivity determined in the mitochondrial pellet and supernatant.
# We next examined the effect of mitochondrial swelling on the accumulation of [Dmt^1, AtnDap^4]DALDA in mitochondria by using alamethicin to induce swelling and rupture of the outer membrane. […] Thus, [Dmt^1]DALDA is associated with mitochondrial membranes.
Molecule,Heart Rate Baseline ([1]; Baseline),Heart Rate Ischemia ([1]; first column),Heart Rate Ischemia ([1]; second column),Heart Rate Open chest ([1]; Open chest),Heart Rate Reperfusion ([1]; first column),Heart Rate Reperfusion ([1]; second column),"uptake of fluorescent peptide into Caco-2 cells (CLSM) ([2]; 0.1 μM, 1 h, 37° C.)",subcellular distribution of fluorescence [2],"incubation time after which uptake into Caco-2 cells was shown ([2]; 0.1 μM, 37° C.) [min]","distribution to mitochondria (overlap with TMRM) ([2]; Caco-2, TMRM 25 nM)","reduction of uptake (fluorescence quenching) by FCCP pretreatment ([3]; FCCP 1.5 μM, mitochondria 0.35 mg/ml) [%]",effect of alamethicin-induced mitochondrial swelling on uptake [3],"effect of alamethicin-induced mitochondrial swelling on uptake ([3]; listed as [Dmt^1, AtnDap^4]DALDA)",uptake on addition of mitochondria (fluorescence) ([3]; ex/em 320/420 nm)
"N=C(N)NCCC[C@@H](NC(=O)[C@@H](N)Cc1ccccc1)C(=O)N[C@@H](Cc1ccccc1)C(=O)N[C@@H](CCCCN)C(N)=O [SS-20, Phe-D-Arg-Phe-Lys-NH2] (H-F[dR]FK-NH2; N-terminus assumed)",255 ± 5,191 ± 17,184 ± 15,211 ± 10,182 ± 16,183 ± 12,,,,,,,,
"Cc1cc(O)cc(C)c1C[C@H](N)C(=O)N[C@H](CCCNC(=N)N)C(=O)N[C@@H](Cc1ccccc1)C(=O)N[C@@H](CNS(=O)(=O)c1cccc2c(N(C)C)cccc12)C(N)=O [[Dmt^1,DnsDap^4]DALDA, Dmt-D-Arg-Phe-dnsDap-NH2] (H-[Dmt][dR]F[Dap](Dansyl)-NH2; N-terminus assumed)",,,,,,,confirmed the uptake,diffuse throughout the cytoplasm but was completely excluded from the nucleus,,,,,,
Dmt-D-Arg-Phe-atnDap-NH2 [SS-19],,,,,,,,completely excluded from the nucleus,15,demonstrated by the overlap,< 20,retained to a large extent,only partially reversed,immediate quenching
